Like-named read-outs stand apart in the source and are kept apart here.
How the values were obtained:
[1] = biological target: COX-2 (Homo sapiens, UniProt P35354); conditions: cited from earlier work
[2] = tested on: mice; conditions: mouse, in vivo
[3] = drug levels in proximal and distal half of the sciatic nerve after topical PS; format: in vivo, mouse; conditions: mouse, in vivo
Protocol: In a separate experiment we studied 8 mice with paclitaxel-induced PN treated with PS 8% ointment 3×/d for 2 wks. Mice were euthanized as above 30 minutes after the last dose of PS. From these mice we harvested both sciatic nerves dividing each into proximal and distal halves, and combined the corresponding halves of every two animals for assay of drug levels.

[4] = tested on: chronic pain after LASIK; assay: PS to outer surface of eyelid in a subject after kerato-refractive surgery (LASIK); conditions: in vivo
[5] = tested on: mice with NTG-induced chronic migraine; assay: von Frey PWT, NTG-induced chronic migraine model; format: in vivo, mouse; conditions: mouse, in vivo
From the text: The NTG-induced chronic migraine model was used as described previously.

[6] = tested on: mice given paclitaxel (CIPN prevention); assay: von Frey PWT, prevention of paclitaxel-induced CIPN pain, topical PS; conditions: mouse, in vivo
Protocol: In order to establish CIPN, paclitaxel is administered at 10 mg/kg intraperitoneally into C57/BL mice. […] This dosing regimen of paclitaxel produces pain associated with CIPN with time courses that are similar to those of pain after paclitaxel administration in cancer patients.
The first doses were administered 2 days prior to the first administration of paclitaxel.

[7] = tested on: mice with vincristine-induced neuropathic pain; assay: von Frey mechanical allodynia, vincristine-induced pain, topical PS; conditions: mouse, in vivo
From the text: (§1) Paw withdrawn, licking or shaking were considered positive responses.

[8] = biological target: COX-1 (Homo sapiens, UniProt P23219); conditions: cited from earlier work
Sequence of COX-1 (P23219 24-599): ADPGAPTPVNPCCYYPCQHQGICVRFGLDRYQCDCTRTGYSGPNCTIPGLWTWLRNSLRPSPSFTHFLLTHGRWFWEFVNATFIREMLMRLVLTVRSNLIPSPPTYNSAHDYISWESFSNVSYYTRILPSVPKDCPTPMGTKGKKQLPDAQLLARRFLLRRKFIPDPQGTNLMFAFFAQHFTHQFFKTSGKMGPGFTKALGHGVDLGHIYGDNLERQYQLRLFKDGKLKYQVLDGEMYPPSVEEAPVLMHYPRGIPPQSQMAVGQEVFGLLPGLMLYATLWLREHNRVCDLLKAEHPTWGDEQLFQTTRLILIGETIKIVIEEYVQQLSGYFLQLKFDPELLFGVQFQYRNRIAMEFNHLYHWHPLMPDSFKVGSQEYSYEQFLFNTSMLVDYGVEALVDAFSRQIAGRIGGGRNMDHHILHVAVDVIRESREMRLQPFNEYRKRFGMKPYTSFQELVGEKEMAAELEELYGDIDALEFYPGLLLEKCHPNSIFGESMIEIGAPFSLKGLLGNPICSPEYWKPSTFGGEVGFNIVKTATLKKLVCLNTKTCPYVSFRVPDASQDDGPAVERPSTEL

[9] = tested on: STZ-diabetic rats; format: in vivo, rat; conditions: rat, in vivo
From the text: The animal model corresponds to that used for Example 4, but using a prevention protocol. As in Example 4, the outcome measure, determining the effect of the treatment on the prevention of mechanical allodynia, was the PWT test, using von Frey filaments. The measurements were taken at day −3, before treatment or induction of neuropathic pain associated with DPN, and again at the end of the study period (day 28).
The rats were randomised into treatment groups as follows, all having an average body weight of about 225 g. • 1. Group 1: naïve rats (n=6) • 2. Group 2: STZ only (n=8) • 3. Group 3: STZ plus vehicle (n=8) • 4. […] Group 5: STZ plus sulindac 0.7% (n=8) • 6. Group 6: STZ plus lidocaine cream 5% (n=8)
Each treatment group was subjected to a PWT assessment at day −3 in order to determine the baseline of mechanical allodynia.
For those rats in the lidocaine treatment group, lidocaine cream was applied only once to both hind paws of the rats 30 min before the final PWT measurement on day 28. On day 0, neuropathic pain associated with DPN was induced with the administration of STZ, and the blood glucose was checked on day 3.

[10] = tested on: mice with paclitaxel-induced central sensitization; assay: cold allodynia (acetone test), paclitaxel-induced central sensitization; conditions: mouse, in vivo
Protocol: To determine the outcome of treatment, assessment of mechanical allodynia was performed. […] Both methods of assessing allodynia are described in Toma W, et al. Neuropharmacology 2017; 117:305-15. Mechanical and cold allodynia are determined at least one day apart in the same animal.
The acetone test was used. Briefly, acetone was applied onto the plantar surface of each hind paw. The time each mouse spent licking, lifting, and/or shaking the hind paw recorded over 60 seconds was the score for cold allodynia.

[11] = tested on: corneal neuropathic pain; assay: preliminary in vivo evidence, PS to the ocular surface, corneal neuropathic pain
[12] = format: in vivo, mouse; conditions: mouse, in vivo
Protocol: At 0.5, 1, 3, 5, 12, 18, and 24 h, mice (n=4-5 mice/time point) were euthanized with CO2 inhalation. Blood was drawn immediately after death. Tissues, including paw skin, paw muscle, leg muscle, the sciatic nerve and lumbar DRG bilaterally were dissected quickly, immediately frozen in liquid nitrogen and stored at −80° C. until analyzed.

[13] = in vivo; conditions: rat
Protocol: Approximately 800 μL of blood were collected through cardiac puncture and immediately centrifuged.
Tissue samples were harvested using separate dissection instruments for each tissue sample to avoid cross contamination, and snap frozen. The levels of the test drug were determined by HPLC.
As previously described (Wen et al, 2019), each plasma sample was mixed with double volume of acetonitrile and centrifuged at 13,200 rpm for 15 min. Tissue samples were weighed, ddH2O (100-300 μL, depending on tissue weight) was added, and they were homogenized. Following addition of acetonitrile (twice the volume of the homogenate), the mixture was sonicated for 10 min, centrifuged at 13,200 rpm for 15 min, and analyzed by HPLC, as reported (Wen et al, 2019).
It was performed following a previously reported method (Xie et al, 2012). Briefly, the HPLC system consisted of a Waters Alliance 2695 Separations Module (Milford, MA, USA) equipped with a Waters 2998 photodiode array detector (328 nm) and a Thermo Hypersil BDS C18 column (150×4.6 mm, particle size 3 μm). The mobile phase consisted of a gradient between solvent A (formic acid, CH3CN, H2O (0.1:4.9:95 v/v/v)) and solvent B (CH3CN) at a flow rate of 1 mL·min−1 at 30° C. We applied gradient elution from 30 to 100% solvent B from 0-6 min, and it was maintained at 100% solvent B until 8 min.
The methods are identical to those used in Example 27.
A single dose of PN or PSA was given by oral gavage to groups of three Sprague-Dawley rats, which were euthanized and dissected according to the early example. The oral gavage solution of phosphonaproxen was prepared by dissolving in 10% DMSO and then suspending it in corn oil.

[14] = tested on: BALB/c mice infected with HSV-1 KOS strain (PHN); format: in vivo, mouse; conditions: mouse, in vivo
Protocol: PHN was induced in mice by infecting them with the HSV-1 KOS strain virus and following established protocols (Ou et al, Front Immunol, 14, 1026269, 2023; Takasaki et al, Anesthesiology, 96 (5), 1168-74, 2002).
; Reckitt Benckiser). Three days later, HSV-1 (10^6 PFUs in 20 μl PBS) was inoculated on the shin of the right hind paw (5×5 mm) after scarification with sandpaper. The virus was applied directly to the scarified area. The contralateral hind paw was without inoculation. Mock infection was performed using the same virus inactivated by heating at 60° C. for 1 h.
In a second experiment, the effect of the parent compound, sulindac, was tested in the same mouse model. Five days post-inoculation, sulindac (as a 5% gel), or vehicle control were administered topically onto both hind paws of mice three times a day for three days.
PHN was induced in mice by infecting them with the HSV-1 KOS strain virus in line with the previous Examples.
Five days post-inoculation, NO-sulindac (Formula XLIV) (as a 5% gel), or vehicle control were administered topically onto both hind paws of mice three times a day for three days.

[15] = tested on: mice with oxaliplatin-induced neuropathic pain; assay: von Frey mechanical allodynia, oxaliplatin-induced pain, topical PS; conditions: mouse, in vivo
From the text: as §1

[16] = tested on: mice with chronic constriction injury of the left sciatic nerve (PTPN); assay: von Frey PWT, chronic constriction injury (CCI) model of PTPN, topical compounds; format: in vivo, mouse; conditions: Q922, PSA 5% on left hind paw 3x/day 6 days

Sequence of COX-2 (P35354 18-604): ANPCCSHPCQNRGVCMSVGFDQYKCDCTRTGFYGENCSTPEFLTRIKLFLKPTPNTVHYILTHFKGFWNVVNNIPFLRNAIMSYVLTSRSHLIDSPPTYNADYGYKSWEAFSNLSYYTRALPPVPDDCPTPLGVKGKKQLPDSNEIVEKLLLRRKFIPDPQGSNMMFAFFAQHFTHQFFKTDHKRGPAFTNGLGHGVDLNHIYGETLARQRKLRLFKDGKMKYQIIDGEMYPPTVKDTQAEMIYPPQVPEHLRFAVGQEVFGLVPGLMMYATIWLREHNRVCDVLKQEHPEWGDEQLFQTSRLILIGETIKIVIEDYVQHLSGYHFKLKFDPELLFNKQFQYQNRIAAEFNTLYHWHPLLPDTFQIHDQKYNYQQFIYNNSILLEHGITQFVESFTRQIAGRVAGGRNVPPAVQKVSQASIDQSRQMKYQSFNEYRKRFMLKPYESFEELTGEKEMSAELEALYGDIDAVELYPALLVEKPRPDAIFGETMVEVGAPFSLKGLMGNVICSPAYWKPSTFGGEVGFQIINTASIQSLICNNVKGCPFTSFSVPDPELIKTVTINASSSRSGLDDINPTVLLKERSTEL

CCOP(=O)(OCC)OCCCCOC(=O)CC1=C(C)/C(=C/c2ccc([S+](C)[O-])cc2)c2ccc(F)cc21 (stereo not shown) [PS, phosphosulindac]
inhibition of COX-2 [1]: does not inhibit | topical or systemic side effects [2]: no topical or systemic side effects | concentration in distal half of the sciatic nerve, mean ± SEM [3]: 17.0 ± 5.1 µM | concentration in proximal half of the sciatic nerve, mean ± SEM [3]: 0.9 ± 0.3 µM | effect on chronic pain after LASIK [4]: dramatically reduced chronic pain | PWT, g Mean ± SEM, Baseline [5]: 2.28 ± 0.34 g | PWT, g Mean ± SEM, Day 11 [5]: 1.18 ± 0.10 g | PWT, gm Mean ± SEM [6]: 0.4 ± 0.01 gm | mechanical allodynia score (von Frey) [6]: 1.2 ± 0.15 g | mechanical allodynia score (von Frey) [7]: 1.5 ± 0.09 g | inhibition of COX-1 [8]: does not inhibit | von Frey, gm mean ± SEM [9]: 33.1 ± 1.6 gm | cold allodynia score (acetone test, time licking/lifting/shaking over 60 s) [10]: 3.1±0.4 | analgesic effect on corneal neuropathic pain [11]: striking analgesic effect | detection in the systemic circulation [12]: no PS was detected | detection in the systemic circulation [13]: No PS was detected | T1/2 ([13]; po, 250 mg/kg): 3.3 h | PWT, g Mean ± SEM, Post-inoculation, day 5 [14]: 0.53 ± 0.06 g | PWT, g Mean ± SEM, Post-treatment [14]: 0.93 ± 0.06 g | PWT, g Mean ± SEM, Pre-inoculation [14]: 1.27 ± 0.19 g | mechanical allodynia score (von Frey) after PS treatment [15]: 1.8 ± 0.09 g

CCOP(=O)(NCCCCNC(=O)c1ccccc1SC/C=C(\C)CC/C=C(\C)CCC=C(C)C)OCC [Q922]
PWT, g Mean ± SEM [16]: 1.48 ± 0.36 g

— patent publication US20260102413A1, “TREATING PAIN ASSOCIATED WITH CENTRAL SENSITIZATION” (Medicon Pharmaceuticals, Inc., priority 2022, published 2026)
